Test results as given in US11759462B2, “Spirocyclic compounds as tryptophan hydroxylase inhibitors” (priority 2013, dated 2023).
Like-named read-outs stand apart in the source and are kept apart here.

Biological target: T1, Recombinant human TPH1 (MBP tagged) (Homo sapiens, UniProt P17752)
T1 construct: cloning full length human TPH1 cDNA in to a bacterial pMAL-c5E expression vector; made in house; host or cells: E. coli BL21 (DE3)
T1 sequence (P17752 1-444): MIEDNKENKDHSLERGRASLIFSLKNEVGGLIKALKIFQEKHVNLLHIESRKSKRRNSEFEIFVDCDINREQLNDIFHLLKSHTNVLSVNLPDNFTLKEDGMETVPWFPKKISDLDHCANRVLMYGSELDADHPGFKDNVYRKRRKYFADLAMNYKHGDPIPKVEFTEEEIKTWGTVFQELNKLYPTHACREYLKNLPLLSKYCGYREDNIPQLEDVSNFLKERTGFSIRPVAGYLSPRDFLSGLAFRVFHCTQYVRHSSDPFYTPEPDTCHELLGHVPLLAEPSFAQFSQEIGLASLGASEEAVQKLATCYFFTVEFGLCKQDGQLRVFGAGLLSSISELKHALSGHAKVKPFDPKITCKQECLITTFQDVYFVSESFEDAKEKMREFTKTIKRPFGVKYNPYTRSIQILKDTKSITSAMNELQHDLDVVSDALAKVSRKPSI
Assay: TPH1 in vitro inhibition assay (kinetic fluorescence)
Type: biochemical
Summary of the method: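 Final mix: 15 nM MBP-TPH1, 30 μM Trp, 36 μM 6-methyltetrahydropterin, 25 μM ferrous ammonium sulfate, 50 mM MES pH 7.1, 1% DMSO, room temperature.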

[1] = read-out: TPH1 Range (TPH1 inhibition IC50)
[2] = TPH1 Range (TPH1 inhibition IC50)

IC50 [1] | IC50 [2] | Compound
< 0.05 µM |  | Nc1nc(O[C@H](c2ccc(-c3ccc4nccnc4c3)cc2)C(F)(F)F)cc(N2CCC3(CC2)CN[C@H](C(=O)O)C3)n1 [Example 55bi, (S)-8-(2-amino-6-((R)-2,2,2-trifluoro-1-(4-(quinoxalin-6-yl)phenyl)ethoxy)pyrimidin-4-yl)-2,8-diazaspiro[4.5]decane-3-carboxylic acid]
0.05 to 0.3 µM |  | Cc1cc(-c2ccc3ncc(F)cc3c2)ccc1[C@@H](Oc1cc(N2CCC3(CC2)CN[C@H](C(=O)O)C3)nc(N)n1)C(F)(F)F [Example 59c, (S)-8-(2-amino-6-((R)-2,2,2-trifluoro-1-(4-(3-fluoroquinolin-6-yl)-2-methylphenyl)ethoxy)pyrimidin-4-yl)-2,8-diazaspiro[4.5]decane-3-carboxylic acid]
0.05 to 0.3 µM |  | Nc1nc(O[C@H](c2ccc(-c3cccc(C(F)(F)F)c3)cc2)C(F)(F)F)cc(N2CCC3(CC2)CN[C@H](C(=O)O)C3)n1 [Example 55as, (S)-8-(2-amino-6-((R)-2,2,2-trifluoro-1-(3′-(trifluoromethyl)-[1,1′-biphenyl]-4-yl)ethoxy)pyrimidin-4-yl)-2,8-diazaspiro[4.5]decane-3-carboxylic acid]
< 0.05 µM |  | Nc1nc(O[C@H](c2ccc(-c3ccc4c(c3)CCCO4)cc2)C(F)(F)F)cc(N2CCC3(CC2)CN[C@H](C(=O)O)C3)n1 [Example 55dq, (S)-8-(2-amino-6-((R)-1-(4-(chroman-6-yl)phenyl)-2,2,2-trifluoroethoxy)pyrimidin-4-yl)-2,8-diazaspiro[4.5]decane-3-carboxylic acid]
< 0.05 µM |  | Cn1ncc2ccc(-c3ccc([C@@H](Oc4cc(N5CCC6(CC5)CN[C@H](C(=O)O)C6)nc(N)n4)C(F)(F)F)cc3)cc21 [Example 55i, (S)-8-(2-amino-6-((R)-2,2,2-trifluoro-1-(4-(1-methyl-1H-indazol-6-yl)phenyl)ethoxy)pyrimidin-4-yl)-2,8-diazaspiro[4.5]decane-3-carboxylic acid]
 | < 0.05 µM | Nc1nc(O[C@H](c2ccc(-c3ccc4ncc(F)cc4c3)cc2)C(F)(F)F)cc(N2CCC3(CC2)CN[C@H](C(=O)O)C3)n1 [Example 55dc, (S)-8-(2-amino-6-((R)-2,2,2-trifluoro-1-(4-(3-fluoroquinolin-6-yl)phenyl)ethoxy)pyrimidin-4-yl)-2,8-diazaspiro[4.5]decane-3-carboxylic acid]

Further lines, the compound ahead of its results:

Compound | IC50 [1] | IC50 [2]
NCc1cccc(-c2cc(Cl)ccc2[C@@H](Oc2cc(N3CCC4(CC3)CN[C@H](C(=O)O)C4)nc(N)n2)C(F)(F)F)c1 [Example 34z, (S)-8-(2-amino-6-((R)-1-(3′-(aminomethyl)-5-chloro-[1,1′-biphenyl]-2-yl)-2,2,2-trifluoroethoxy)pyrimidin-4-yl)-2,8-diazaspiro[4.5]decane-3-carboxylic acid] | < 0.05 µM | 
CCOc1ccc(-c2ccc([C@@H](Oc3cc(N4CCC5(CC4)CN[C@H](C(=O)O)C5)nc(N)n3)C(F)(F)F)c(-n3ccc(C)n3)c2)cc1Cl [Example 1al, (S)-8-(2-amino-6-((R)-1-(3′-chloro-4′-ethoxy-3-(3-methyl-1H-pyrazol-1-yl)-[1,1′-biphenyl]-4-yl)-2,2,2-trifluoroethoxy)pyrimidin-4-yl)-2,8-diazaspiro[4.5]decane-3-carboxylic acid] | < 0.05 µM | 
Cc1ccn(-c2ccc(-c3ccc(Cl)cc3)cc2[C@@H](Oc2cc(N3CCC4(CC3)CN[C@H](C(=O)O)C4)nc(N)n2)C(F)(F)F)n1 [Example 19q, (S)-8-(2-amino-6-((R)-1-(4′-chloro-4-(3-methyl-1H-pyrazol-1-yl)-[1,1′-biphenyl]-3-yl)-2,2,2-trifluoroethoxy)pyrimidin-4-yl)-2,8-diazaspiro[4.5] decane-3-carboxylic acid] | < 0.05 µM | 
Nc1nc(O[C@H](c2ccc(Cl)cc2-c2cccc(N3CCCC3=O)c2)C(F)(F)F)cc(N2CCC3(CC2)CN[C@H](C(=O)O)C3)n1 [Example 34o, (S)-8-(2-amino-6-((R)-1-(5-chloro-3′-(2-oxopyrrolidin-1-yl)-[1,1′-biphenyl]-2-yl)-2,2,2-trifluoroethoxy)pyrimidin-4-yl)-2,8-diazaspiro[4.5]decane-3-carboxylic acid] |  | 0.05 to 0.3 µM
Nc1nc(O[C@H](c2ccc(-c3ccc4c(c3)CCC(=O)N4)cc2)C(F)(F)F)cc(N2CCC3(CC2)CN[C@H](C(=O)O)C3)n1 [Example 55v, (S)-8-(2-amino-6-((R)-2,2,2-trifluoro-1-(4-(2-oxo-1,2,3,4-tetrahydroquinolin-6-yl)phenyl)ethoxy)pyrimidin-4-yl)-2,8-diazaspiro[4.5]decane-3-carboxylic acid] |  | < 0.05 µM
Nc1nc(O[C@H](c2ccc(Cl)cc2-c2ccc(C(F)(F)F)c(Cl)c2)C(F)(F)F)cc(N2CCC3(CC2)CN[C@H](C(=O)O)C3)n1 [Example 34ax, (S)-8-(2-amino-6-((R)-1-(3′,5-dichloro-4′-(trifluoromethyl)-[1,1′-biphenyl]-2-yl)-2,2,2-trifluoroethoxy)pyrimidin-4-yl)-2,8-diazaspiro[4.5]decane-3-carboxylic acid] | 0.05 to 0.3 µM | 
COc1ccccc1-c1ccc([C@@H](Oc2cc(N3CCC4(CC3)CN[C@H](C(=O)O)C4)nc(C)n2)C(F)(F)F)c(-n2ccc(C)n2)c1 [Example 29p, (S)-8-(2-methyl-6-((R)-2,2,2-trifluoro-1-(2′-methoxy-3-(3-methyl-1H-pyrazol-1-yl)-[1,1′-biphenyl]-4-yl)ethoxy)pyrimidin-4-yl)-2,8-diazaspiro[4.5]decane-3-carboxylic acid] | < 0.05 µM | 
Cc1ccn(-c2cc(-c3ccc(F)c(F)c3)ccc2[C@@H](Oc2cc(N3CCC4(CC3)CN[C@H](C(=O)O)C4)nc(N)n2)C(F)(F)F)n1 [Example 1ag, (S)-8-(2-amino-6-((R)-1-(3′,4′-difluoro-3-(3-methyl-1H-pyrazol-1-yl)-[1,1′-biphenyl]-4-yl)-2,2,2-trifluoroethoxy)pyrimidin-4-yl)-2,8-diazaspiro[4.5]decane-3-carboxylic acid] | < 0.05 µM | 
Cc1ccn(-c2cc(C#N)ccc2[C@@H](Oc2cc(N3CCC4(CC3)CN[C@H](C(=O)O)C4)nc(N)n2)C(F)(F)F)n1 [Example 14, (S)-8-(2-amino-6-((R)-1-(4-cyano-2-(3-methyl-H-pyrazol-1-yl)phenyl)-2,2,2-trifluoroethoxy)pyrimidin-4-yl)-2,8-diazaspiro[4.5]decane-3-carboxylic acid] | < 0.05 µM | 
Cc1cc(Cl)cc(-c2cc(Cl)ccc2[C@@H](Oc2cc(N3CCC4(CC3)CN[C@H](C(=O)O)C4)nc(N)n2)C(F)(F)F)c1 [Example 34be, (S)-8-(2-amino-6-((R)-1-(3′,5-dichloro-5′-methyl-[1,1′-biphenyl]-2-yl)-2,2,2-trifluoroethoxy)pyrimidin-4-yl)-2,8-diazaspiro[4.5]decane-3-carboxylic acid] | < 0.05 µM | 
CCCCOC(=O)c1ccc([C@@H](Oc2cc(N3CCC4(CC3)CN[C@H](C(=O)O)C4)nc(N)n2)C(F)(F)F)c(-n2ccc(C)n2)c1 [Example 18c, (S)-8-(2-amino-6-((R)-1-(4-(butoxycarbonyl)-2-(3-methyl-1H-pyrazol-1-yl)phenyl)-2,2,2-trifluoroethoxy)pyrimidin-4-yl)-2,8-diazaspiro[4.5]decane-3-carboxylic acid] | < 0.05 µM | 
(S)-8-(2-amino-6-((R)-2,2,2-trifluoro-1-(3′,4,5′- trifluoro-[1,1′-biphenyl]-4-yl)ethoxy)pyrimidin-4- yl)-2,8-diazaspiro[4.5]decane-3-carboxylic acid [Example 55co] | 0.05 to 0.3 µM | 
Nc1nc(O[C@H](c2ccc3c(c2)CNCN3)C(F)(F)F)cc(N2CCC3(CC2)CN[C@H](C(=O)O)C3)n1 [Example 58, (S)-8-(2-amino-6-((R)-2,2,2-trifluoro-1-(1,2,3,4-tetrahydroquinazolin-6-yl)ethoxy)pyrimidin-4-yl)-2,8-diazaspiro[4.5]decane-3-carboxylic acid] | 0.05 to 0.3 µM | 
CC(C)(C)c1cccc(-c2cc(Cl)ccc2[C@@H](Oc2cc(N3CCC4(CC3)CN[C@H](C(=O)O)C4)nc(N)n2)C(F)(F)F)c1 [Example 34bq, (S)-8-(2-amino-6-((R)-1-(3′-(tert-butyl)-5-chloro-[1,1′-biphenyl]-2-yl)-2,2,2-trifluoroethoxy)pyrimidin-4-yl)-2,8-diazaspiro[4.5]decane-3-carboxylic acid] |  | 0.05 to 0.3 µM
CC(Nc1cc(N2CCC3(CC2)CN[C@H](C(=O)O)C3)nc(N)n1)C12CC3CC(CC(C3)C1)C2 (stereo partly drawn) [Example 41d, (3S)-8-(6-((1-((1R,3S,5S)-adamantan-1-yl)ethyl)amino)-2-aminopyrimidin-4-yl)-2,8-diazaspiro[4.5]decane-3-carboxylic acid] | 3 to 10 µM | 
CNC(=O)c1cccc(-c2cc(Cl)ccc2[C@@H](Oc2cc(N3CCC4(CC3)CN[C@H](C(=O)O)C4)nc(N)n2)C(F)(F)F)c1 [Example 34cm, (S)-8-(2-amino-6-((R)-1-(5-chloro-3′-(methylcarbamoyl)-[1,1′-biphenyl]-2-yl)-2,2,2-trifluoroethoxy)pyrimidin-4-yl)-2,8-diazaspiro[4.5]decane-3-carboxylic acid] | 0.05 to 0.3 µM | 
CCCOc1ccc(-c2ccc([C@@H](Oc3cc(N4CCC5(CC4)CN[C@H](C(=O)O)C5)nc(N)n3)C(F)(F)F)c(-c3ccccc3)c2)cc1 [Example 54c, (S)-8-(2-amino-6-((R)-2,2,2-trifluoro-1-(4-propoxy-[1,1′:3′,1″-terphenyl]-4′-yl)ethoxy)pyrimidin-4-yl)-2,8-diazaspiro[4.5]decane-3-carboxylic acid] | < 0.05 µM | 
